Entries after “also recorded” stand apart in the source; their conditions may differ. Read-outs that look alike come from different tables or passages of the source.
Experiments:
[1] = test system: aspirin-induced gastric damage; assay: Aspirin-induced gastric damage model (aspirin erosion model); assay type: in vivo; conditions: Rattus norvegicus, 0.5 h
Procedure: (§1) Fifteen minutes later, the animals were orally challenged with a single dose of 20 mg/kg indomethacin or 288 mg/kg aspirin. The animals were euthanized either at 4 hours (indomethacin) or 30 minutes (aspirin) later and the amount of gastric damage was assessed using image analysis.
Additional compounds of Formula I were tested in both the MAC-1 and the aspirin-induced gastric damage model (Table 1 and FIG. 4). Compounds which were active in the MAC-1 assay were also active in the gastric cytoprotective assay.

[2] = test system: stimulated acid secretion; assay: Dimaprit-stimulated gastric fistula beagle dog model; assay type: in vivo
Text: All parameters of gastric secretion appeared to be practically identical to those observed in the vehicle-only controls.

MAC-1 [3] = target: T1, MAC-1 (Homo sapiens, UniProt P05107+P11215); assay: Inhibition of MAC-1 mediated adhesion of FMLP-stimulated neutrophils to KLH-coated plastic; assay type: cell-based; conditions: 1 h, read-out: increase of MAC-1 dependent adherence to KLH-coated plastic
T1 construct: endogenous in cells
T1 sequence (P05107 23-769, other chains not shown): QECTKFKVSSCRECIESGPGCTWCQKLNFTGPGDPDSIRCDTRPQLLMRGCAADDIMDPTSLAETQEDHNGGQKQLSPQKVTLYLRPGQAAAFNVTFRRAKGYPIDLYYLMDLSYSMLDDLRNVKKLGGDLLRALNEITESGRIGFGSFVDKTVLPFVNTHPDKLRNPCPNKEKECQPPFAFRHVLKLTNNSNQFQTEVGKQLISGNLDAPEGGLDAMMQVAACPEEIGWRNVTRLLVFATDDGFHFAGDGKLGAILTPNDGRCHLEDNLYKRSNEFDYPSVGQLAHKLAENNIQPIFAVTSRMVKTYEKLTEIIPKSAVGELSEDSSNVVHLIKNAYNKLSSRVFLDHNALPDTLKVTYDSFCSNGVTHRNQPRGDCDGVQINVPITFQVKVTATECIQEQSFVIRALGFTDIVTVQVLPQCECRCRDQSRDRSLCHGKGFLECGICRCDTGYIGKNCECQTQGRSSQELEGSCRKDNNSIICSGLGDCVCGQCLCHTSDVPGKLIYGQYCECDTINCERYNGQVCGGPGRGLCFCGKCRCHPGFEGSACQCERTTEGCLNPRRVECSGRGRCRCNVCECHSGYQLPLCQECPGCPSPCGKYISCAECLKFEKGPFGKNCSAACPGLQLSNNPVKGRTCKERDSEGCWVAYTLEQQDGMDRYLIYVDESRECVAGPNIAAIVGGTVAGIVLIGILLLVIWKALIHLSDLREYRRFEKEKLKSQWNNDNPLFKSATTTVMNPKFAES

[4] = test system: NSAID-induced gastric damage; assay: Gastric cytoprotection in animal models (NSAID-induced gastric damage); assay type: in vivo; conditions: Rattus norvegicus, po; range over models
Procedure: as §1

Plasma protein binding = assay type: in vitro ADME; conditions: rat, dog, sheep, and human
[5] = test system: animal disease models (asthma, allergy, arthritis, adult respiratory distress syndrome (ARDS), and cardiac reperfusion); assay: Animal disease models (asthma, allergy, arthritis, ARDS, cardiac reperfusion); assay type: in vivo
[6] = test system: indomethacin-induced gastric damage; assay: Indomethacin-induced gastric damage model; assay type: in vivo; conditions: Rattus norvegicus; oral, 15 minutes before 20 mg/kg indomethacin PO; assessed at 4 hours; read-out: ED50 cytoprotection, indomethacin
Procedure: as §1

[7] = test system: human basophil histamine release; assay: Human basophil histamine release stimulated with anti-IgE; assay type: cell-based
[8] = test system: leukocyte adhesion in the animal's mesenteric post-capillary venules; assay: NSAID (indomethacin)-induced leukocyte adhesion in rat mesenteric post-capillary venules, intravital microscopy; assay type: in vivo; conditions: indomethacin 10 minutes later
Text: In these studies, oral treatment of rats with the NSAID indomethacin results in leukocyte adhesion in the animal's mesenteric post-capillary venules. This can be observed and measured using the technique of Intravital microscopy.

[9] = test system: NSAID-induced gastric damage; conditions: indomethacin and aspirin in rats; Low J. E., et al., 1993; cited from earlier work
[10] = test system: gastrointestinal tissues (stomach, small and large intestines); assay: Whole body autoradiography after intravenous radiolabeled Example 1; assay type: in vivo
basal acid secretion = assay: Shay rat model of basal acid secretion; assay type: in vivo; conditions: 50 or 200 mg/kg PO; pylorus ligated 1 hour later, acid content 4 hours later
Procedure: This has been tested in two different animal models. In the rat, Example 1 was tested in the Shay rat model of basal acid secretion. […] One hour later the animals were anesthetized and the pyloric sphincter to the stomach was ligated. The stomachs were removed 4 hours later and their acid content determined.

[11] = test system: human colonic adenocarcinoma (CaCO-2) cells
Procedure: [^14 C]Example 1 (22.9 μg/mL) was loaded on to either the apical (luminal) or basolateral (vascular) of the monolayer. Samples were obtained over 250 minutes from either side of the chamber in each experiment.

MAC-1 [12] = target: T1, MAC-1; conditions: Wright C. D., et al., Keystone symposium 1994; cited from earlier work
[13] = po, Table 1, aspirin-induced gastric damage model, read-out: Gastric Cytoprotective Effect (ED50, mg/kg PO)

COc1cc2sc(C(=O)Nc3nnn[nH]3)c(OC(C)C)c2cc1OC [Example 3, 5,6-Dimethoxy-3-(1-methylethoxy)-N-1H-tetrazol5-yl-benzo[b]thiophene-2-carboxamide]
ED50 [1, 13]: 1 mg/kg

CN(C)CCCSC(=N)N [dimaprit]
gastric secretion pH ([2]; constant intravenous 0.2 mg/kg hr): 1.0

CNC(=C[N+](=O)[O-])NCCSCc1ccc(CN(C)C)o1 [ranitidine]
increase in gastric pH ([2]; 1.5 mg/kg PO, dimaprit 0.2 mg/kg hr IV): 4 units

CSCC[C@H](NC=O)C(=O)N[C@@H](CC(C)C)C(=O)N[C@@H](Cc1ccccc1)C(=O)O [N-formyl-methionyl-leucyl-phenylalanine]
activation at 0.01 µM (MAC-1 [3]): 49%

COc1ccc2c(OC(C)C)c(C(=O)Nc3nnn[nH]3)sc2c1 [Example 2, 6-Methoxy-3-(1-methylethoxy)-N-1H-tetrazol-5-yl-benzo[b]thiophene-2-carboxamide]
ED50 [1, 13]: 1 mg/kg

COc1cc2sc(C(=O)Nc3nnn[nH]3)c(Oc3ccccc3)c2cc1OC [Example 4, 5,6-Dimethoxy-3-phenoxy-N-1H-tetrazol-5-yl-benzo[b]thiophene-2-carboxamide]
ED50 [1, 13]: 0.01 mg/kg

COc1ccc2sc(C(=O)Nc3nnn[nH]3)c(OC(C)C)c2c1 [Example 1, 5-Methoxy-3-(1-methylethoxy)-N-1H-tetrazol-5-yl-benzo[b]thiophene-2-carboxamide]
ED50 [4]: 0.01 to 1 mg/kg | fraction unbound (Plasma protein binding): 0.01 to 0.02 | ED50 ([5]; IV): 5 to 20 mg/kg | ED50 ([5]; oral): 30 to 100 mg/kg | ED50 [6]: 1 mg/kg | IC50 ([7]; Homo sapiens, anti-IgE stimulated, absence of serum): 300 nM | inhibitory effect on human basophil histamine release in the presence of serum ([7]; increasing concentration of serum (5-50%)): significantly reduced | changes in gastric secretion ([2]; 0.1, 1.0, or 10 mg/kg PO, dimaprit-stimulated): no significant changes | inhibition of indomethacin-induced leukocyte adhesion ([8]; 1 mg/kg PO, 40 and 70 minute time point): no protective effects | inhibition of indomethacin-induced leukocyte adhesion ([8]; 5 or 10 mg/kg PO): complete inhibition | gastric cytoprotective effects against damage caused by NSAIDs [9]: gastric cytoprotective effects | time to radiolabeled material associated with gastrointestinal tissues ([10]; rapid): 5 min | levels of radiolabeled material associated with gastrointestinal tissues ([10]; stomach, small and large intestines): high levels | ED50 ([1]; oral, 15 minutes before 288 mg/kg aspirin PO, assessed at 30 minutes, read-out: ED50 cytoprotection, aspirin): 0.01 mg/kg | effect on basal acid secretion (basal acid secretion): no effect | amount on apical side compared to basolateral side [11]: significantly more | inhibition of neutrophil adhesion mediated by MAC-1 (MAC-1 [12]): can inhibit neutrophil adhesion; also recorded: inhibits neutrophil adhesion

From US5426113A, “Method of preventing ulcer formation caused by nonsteroidal antiinflammatory drugs employing tetrazol-benzothiophene carboxamide compounds” (Warner-Lambert Company, priority 1994, dated 1995)
